Test results from ChEMBL document CHEMBL1123767, “High-affinity leukotriene receptor antagonists. Synthesis and pharmacological characterization of 2-hydroxy-3-[(2-carboxyethyl)thio]-3-[2-(8-phenyloctyl)phenyl] propanoic acid” (J Med Chem, 1987).
Each block holds one compound with its values, some of them ahead of it.

Tests used:
[1] = species on record: Cavia porcellus; experiment: In vitro ability to antagonize LTD4-induced contractions of guinea pig smooth muscle (trachea) at 10 uM concentration.; format: functional
[2] = biological target: T1, Cysteinyl leukotriene receptor 1 (Cavia porcellus, UniProt Q2NNR5); experiment: Binding affinity against Cysteinyl leukotriene D4 receptor in guinea pig lung membranes using [3H]LTD4 as the radioligand.; format: cell membranes, Membrane
T1 sequence (Q2NNR5 whole entry): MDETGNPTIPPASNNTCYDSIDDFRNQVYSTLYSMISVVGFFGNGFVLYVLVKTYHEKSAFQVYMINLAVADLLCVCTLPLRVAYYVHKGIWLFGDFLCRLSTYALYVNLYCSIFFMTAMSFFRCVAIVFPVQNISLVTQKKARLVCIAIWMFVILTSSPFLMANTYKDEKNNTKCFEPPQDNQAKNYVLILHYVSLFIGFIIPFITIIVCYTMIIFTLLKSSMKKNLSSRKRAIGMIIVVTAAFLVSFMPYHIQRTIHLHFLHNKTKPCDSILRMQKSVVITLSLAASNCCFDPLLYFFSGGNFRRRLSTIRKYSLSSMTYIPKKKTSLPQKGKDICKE

[3] = biological target: T2, Cysteinyl leukotriene receptor 1 (Cavia porcellus) (UniProt Q2NNR5); experiment: (§1) In vitro ability to antagonize LTC4-induced contractions of guinea pig smooth muscle (trachea) at 10 uM concentration.; format: functional, tissue-based
T2 sequence (whole entry): T1 sequence (Q2NNR5 whole entry)

[4] = species on record: Homo sapiens; experiment: In vitro ability to antagonize LTC4-induced contractions of human smooth muscle (bronchus) at 10 uM concentration.; format: functional
[5] = species on record: Homo sapiens; experiment: Ability to antagonize LTD4-induced contractions of human airway smooth muscle (bronchus) at 10 uM concentration; format: functional
[6] = species on record: Cavia porcellus; experiment: as §1; format: functional
[7] = biological target: T2, Cysteinyl leukotriene receptor 1 (Cavia porcellus); details: Trachea, 3 uM
Description: In vitro ability to antagonize LTC4-induced contractions of guinea pig smooth muscle (trachea) at 3 uM concentration.

[8] = species on record: Homo sapiens; experiment: In vitro ability to antagonize LTD4-induced contractions of human airway smooth muscle (bronchus) at 3 uM concentration; format: functional
[9] = species on record: Cavia porcellus; experiment: In vitro ability to antagonize LTD4-induced contractions of guinea pig smooth muscle (trachea) at 3 uM concentration.; format: functional
[10] = biological target: T3, Cysteinyl leukotriene receptor 1 (Homo sapiens, UniProt Q9Y271); experiment: Binding affinity against Cysteinyl leukotriene D4 receptor in human lung membranes using [3H]LTD4 as the radioligand.; format: cell membranes, Membrane
T3 sequence (Q9Y271 whole entry): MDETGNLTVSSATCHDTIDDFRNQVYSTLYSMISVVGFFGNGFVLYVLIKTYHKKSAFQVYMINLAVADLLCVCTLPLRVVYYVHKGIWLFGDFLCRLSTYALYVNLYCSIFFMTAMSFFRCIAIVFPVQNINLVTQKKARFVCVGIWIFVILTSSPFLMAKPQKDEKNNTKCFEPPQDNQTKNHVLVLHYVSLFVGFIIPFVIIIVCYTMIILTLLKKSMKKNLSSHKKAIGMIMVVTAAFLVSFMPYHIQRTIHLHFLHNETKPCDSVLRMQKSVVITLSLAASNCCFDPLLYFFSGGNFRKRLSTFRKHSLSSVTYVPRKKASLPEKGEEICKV

[11] = species on record: Homo sapiens; experiment: In vitro ability to antagonize LTC4-induced contractions of human smooth muscle (bronchus) at 3 uM concentration.; format: functional

Ki [2]: 180 nM
SMILES: O=C(O)CCS[C@@H](c1ccccc1CCCCCCCCc1ccccc1)[C@H](O)C(=O)O
pKb [1]: 6.1

Ki [2]: 60 nM
pKb [3]: 5.1
SMILES: O=C(O)CCSC(CC(=O)O)c1ccccc1CCCCCCCCc1ccccc1 (stereo not given)
pKb [1]: 7

SMILES: CCCc1c(OCC(O)COc2ccc3c(=O)cc(C(=O)O)oc3c2CCC)ccc(C(C)=O)c1O (stereo not given) [FPL-55712]
pKb [1]: 6.7
pKb [4]: 6.4
pKb [5]: 5.8
pKb [6]: 4.9

pKb [7]: < 5.4
Ki [2]: 5 nM
Ki [10]: 10 nM
SMILES: O=C(O)CCS[C@H](c1ccccc1CCCCCCCCc1ccccc1)[C@@H](O)C(=O)O [POBILUKAST]
pKb [8]: 8.2
pKb [9]: 8.6
pKb [11]: 8.3
